Reference: BindingDB's records for doi:10.1021/jm020951i (Uppsala University, 2003)

What was measured:
Assay in all cases: Enzyme Inhibition Measurements
Cathepsin D = Cathepsin D (Homo sapiens, UniProt P07339)
Description: (§1) Enzyme activities were assayed by monitoring the hydrolysis of substrate in the presence or absence of inhibitor compounds. The hydrolysis was recorded as the increase in fluorescence intensity over a 10 min time period. IC50 values were obtained by assuming competitive inhibition and fitting the dose response data to the equation (Vi/V0) =1/ (1 + [I]/IC50)). The Ki was calculated by using Ki = IC50/ (1 + [S]/Km), and a Km value determined according to Michaelis-Menten.

Plasmepsin I = Plasmepsin I (Plasmodium falciparum, UniProt P39898); settings: pH 4.5; 22 °C
Sequence of Plasmepsin I (P39898 whole entry): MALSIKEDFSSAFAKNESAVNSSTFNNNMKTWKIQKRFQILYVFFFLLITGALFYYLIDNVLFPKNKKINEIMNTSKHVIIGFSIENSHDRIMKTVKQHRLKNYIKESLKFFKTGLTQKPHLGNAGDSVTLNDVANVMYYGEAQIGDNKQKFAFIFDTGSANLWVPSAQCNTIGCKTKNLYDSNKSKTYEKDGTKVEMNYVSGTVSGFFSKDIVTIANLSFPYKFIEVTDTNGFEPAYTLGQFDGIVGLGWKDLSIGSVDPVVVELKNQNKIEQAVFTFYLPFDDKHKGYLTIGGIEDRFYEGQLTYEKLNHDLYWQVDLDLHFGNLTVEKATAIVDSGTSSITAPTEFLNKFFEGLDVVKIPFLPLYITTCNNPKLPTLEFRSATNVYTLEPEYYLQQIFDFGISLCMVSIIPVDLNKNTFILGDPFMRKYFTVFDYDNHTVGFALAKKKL
Description: as §1

Plasmepsin II = Plasmepsin II (Plasmodium falciparum (isolate HB3), UniProt P46925); settings: pH 4.5; 22 °C
Sequence of Plasmepsin II (P46925 whole entry): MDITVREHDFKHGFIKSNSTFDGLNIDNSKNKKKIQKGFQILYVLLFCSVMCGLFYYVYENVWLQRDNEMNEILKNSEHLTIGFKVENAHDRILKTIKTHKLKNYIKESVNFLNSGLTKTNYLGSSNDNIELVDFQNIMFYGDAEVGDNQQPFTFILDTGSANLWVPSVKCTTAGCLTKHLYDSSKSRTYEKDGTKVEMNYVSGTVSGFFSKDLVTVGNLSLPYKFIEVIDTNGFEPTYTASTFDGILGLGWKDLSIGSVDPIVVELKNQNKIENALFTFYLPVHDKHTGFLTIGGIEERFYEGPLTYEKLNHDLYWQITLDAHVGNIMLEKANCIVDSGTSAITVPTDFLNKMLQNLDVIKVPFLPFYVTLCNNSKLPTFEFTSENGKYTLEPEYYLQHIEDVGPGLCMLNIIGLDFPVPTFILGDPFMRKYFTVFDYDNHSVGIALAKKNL
Description: as §1

Sequence of Cathepsin D (P07339 65-162 limits assumed): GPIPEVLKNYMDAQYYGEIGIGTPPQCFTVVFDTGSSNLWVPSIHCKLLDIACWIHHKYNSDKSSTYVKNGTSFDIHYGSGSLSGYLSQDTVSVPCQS
Sequence of Cathepsin D (P07339 169-412 limits assumed): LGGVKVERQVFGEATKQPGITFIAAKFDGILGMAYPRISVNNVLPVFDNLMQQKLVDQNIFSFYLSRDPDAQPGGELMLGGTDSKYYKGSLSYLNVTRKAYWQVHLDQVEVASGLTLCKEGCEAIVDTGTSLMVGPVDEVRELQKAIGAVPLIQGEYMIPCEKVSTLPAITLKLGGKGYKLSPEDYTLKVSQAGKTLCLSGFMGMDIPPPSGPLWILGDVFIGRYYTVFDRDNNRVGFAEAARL

Row | Ki (Cathepsin D) [nM] | SMILES | Ki (Plasmepsin I) [nM] | Ki (Plasmepsin II) [nM]
1 | 1000 | CC(C)[C@H](NC(=O)c1ccccn1)C(=O)N[C@@H](Cc1ccccc1)[C@@H](O)CN[C@@H](Cc1ccc(-c2cccc(N)c2)cc1)C(N)=O [(2S,5S,6R)-3-Aza-2-[p-(m-aminophenyl)benzyl]-5-hydroxy-7-phenyl-6-[(picolyl-L-valinyl)amino]heptanoyl Amide] |  | 
2 | 1700 | COc1ccccc1-c1ccc(C[C@H](NC[C@H](O)[C@H](Cc2ccccc2)NC(=O)[C@@H](NC(=O)c2ccccn2)C(C)C)C(N)=O)cc1 [(2S,5S,6R)-3-Aza-5-hydroxy-2-[p-(o-methoxyphenyl)-benzyl]-7-phenyl-6-[(picolyl-L-valinyl)amino]heptanoyl Amide] |  | 

More lines, now with the values behind:

Row | SMILES | Ki (Cathepsin D) [nM] | Ki (Plasmepsin I) [nM] | Ki (Plasmepsin II) [nM]
3 | CC(C)[C@H](NC(=O)c1ccccn1)C(=O)N[C@@H](Cc1ccccc1)[C@@H](O)CN[C@H](Cc1ccccc1)C(N)=O [(2R,5S,6R)-3-Aza-2-benzyl-5-hydroxy-7-phenyl-6-[(picolyl-L-valinyl)amino]heptanoyl Amide] |  | 8000 | 3500
4 | CC(C)C[C@H](NC[C@H](O)[C@H](Cc1ccccc1)NC(=O)[C@@H](NC(=O)c1ccccn1)C(C)C)C(N)=O [(2S)-2-{[(2S,3S)-2-hydroxy-3-[(2S)-3-methyl-2-(pyridin-2-ylformamido)butanamido]-4-phenylbutyl]amino}-4-methylpentanamide] |  | 2900 | 3300
5 | Cc1ccc(-c2ccc(C[C@H](NC[C@H](O)[C@H](Cc3ccccc3)NC(=O)[C@@H](NC(=O)c3ccccn3)C(C)C)C(N)=O)cc2)cc1 [(2S)-N-[(2S,3S)-4-{[(1S)-1-carbamoyl-2-[4-(4-methylphenyl)phenyl]ethyl]amino}-3-hydroxy-1-phenylbutan-2-yl]-3-methyl-2-(pyridin-2-ylformamido)butanamide] | 1700 |  | 
6 | CC(C)[C@H](NC(=O)c1ccccn1)C(=O)N[C@@H](Cc1ccccc1)[C@@H](O)CN[C@@H](Cc1ccccc1)C(N)=O [(2S,5S,6R)-3-Aza-2-benzyl-5-hydroxy-7-phenyl-6-[(picolyl-L-valinyl)amino]heptanoyl Amide] |  | 2100 | 3200
